According to patent US20080038321A1, “PROPHYLACTIC/THERAPEUTIC COMPOSITIONS FOR LIVER DISEASES” (Ajinomoto Co., Inc., priority 2004, published 2008):
“Also recorded” adds a separate entry of the source.

Columns and labels:
[1] = test system: G6Pase; assay: Liver gene expression in GK rats after 8 weeks L-Asp diet (quantitative PCR): G6Pase; format: in vivo, rat; conditions: 3% L-Asp diet (3AS), CON group = 1.00
Experimental: (§3) Specifically, L-Asp as mixed in a diet was administered to GK rats over a long time, and the effect of the administration on gene expression in the liver and disease state was determined.
(§4) Male 6-week-old GK rats were purchased, pre-fed for one week, grouped into the following groups each including five rats, the diet was replaced with experimental diets, and the rats were fed with the experimental diets for eight weeks.
On week eight of administration, the liver was extirpated after eighteen-hour fasting, RNAs were extracted, and the gene expressions were determined through quantitative PCR and compared.

[2] = test system: GK rats; assay: Long-term L-Asp in diet to GK rats: fasting blood glucose and insulin; format: in vivo, rat; conditions: 3% L-Asp-containing diet (3AS), 6 weeks, n = 5, mean ± SD
Experimental: as §3, §4
CON group: administered with a control diet
3AS group: administered with a 3% L-Asp-containing diet
6AS group: administered with a 6% L-Asp-containing diet
The fasting blood glucose level is generally considered to be an index reflecting the basal insulin secretion and the insulin resistance.

[3] = test system: G6Pase; assay: Liver gene expression in high-fat diet GK rats after 6-week administration (quantitative PCR): G6Pase; format: in vivo, rat
Text: (§1) The mRNA levels are expressed while defining the level in the SD group as 1.00. <Primer Sequence>

[4] = test system: TRB3; assay: Liver gene expression in high-fat diet GK rats after 6-week administration (quantitative PCR): TRB3; format: in vivo, rat
Text: as §1

[5] = test system: GK rats fed with high-fat diets; conditions: rat, in vivo
[6] = test system: ACO; assay: Liver gene expression in high-fat diet GK rats after 6-week administration (quantitative PCR): ACO; format: in vivo, rat
Text: as §1

[7] = test system: HNF-4α; assay: HNF-4α mRNA in Fao cells with L-Asp, L-Ala or both (quantitative PCR); format: cell-based, rat; conditions: 3 h, L-Asp 0.05 mM, L-Ala 0.03 mM or both
Experimental: (§2) Whether the suppressive effect of L-Asp on TRB3 expression in rat hepatocyte-derived Fao cells is increased by adding L-Ala as another amino acid was studied. Whether the expression of HNF-4α is increased was also studied. Fao cells were inoculated on a 24-well plate to an amount of 2×10^5 cells/well, and the cells were cultivated in a 10% fetal bovine serum-containing RPMI 1640 medium (supplied from Nacalai Tesque, Inc.; Code No. 30264-85) at 37° C. in an atmosphere of 5% CO2 overnight. On the following day, the medium was replaced with one of a 10% fetal bovine serum-containing RPMI medium from which all amino acids had been removed (minus amino acid medium; Table 1) and media corresponding to the minus amino acid medium, except with L-Asp (concentration: 0.05 mM), L-Ala (concentration: 0.03 mM), or both added, and the cells were further cultivated at 37° C. in 2.5% CO2 atmosphere for three hours. RNAs were extracted from the cultured cells, and the TRB3 mRNA levels and the HNF-4α mRNA levels were determined through quantitative polymerase chain reaction (PCR) (Table 10).

[8] = test system: TRB3; assay: TRB3 mRNA in Fao cells with L-Asp, L-Ala or both (quantitative PCR); format: cell-based, rat; conditions: 3 h, L-Asp 0.05 mM, L-Ala 0.03 mM or both
Experimental: as §2

[9] = test system: PPAR-alpha; assay: Liver gene expression in high-fat diet GK rats after 6-week administration (quantitative PCR): PPAR-alpha; format: in vivo, rat
Text: as §1

[10] = test system: TRB3; assay: Suppressive effects of amino acids on TRB3 expression in cultured hepatocytes (Fao cells, quantitative PCR); format: cell-based, rat; conditions: other experiments; 0.03 mM to 0.3 mM
[11] = test system: TRB3; assay: as above; format: cell-based, rat; conditions: 3 h, minus amino acid medium plus one L-amino acid 1 mM (or standard medium), mRNA, minus amino acid medium = 1.00, n = 4, mean ± SD
Experimental: Suppressive effects of twenty-two amino acids on TRB3 expression in rat hepatic cancer-derived Fao cells were examined.
The standard medium is a medium corresponding to the minus amino acid medium, except for further containing amino acids listed in Table 2.
RNAs were extracted from the cultured cells, the expression levels of TRB3 gene were determined through quantitative polymerase chain reaction (PCR), and the suppressive effects of amino acids on TRB3 expression were determined and compared with data of TRB3 expression induced upon amino acid starvation. The gene expression was corrected with reference to β-actin expression level. The correction was carried out in the same manner in the after-mentioned genes.
The data were corrected and expressed while taking the average of TRB3 mRNA levels after three-hour cultivation in the minus amino acid medium as 1.00.

[12] = test system: CPT-1; assay: Liver gene expression in high-fat diet GK rats after 6-week administration (quantitative PCR): CPT-1; format: in vivo, rat
Text: as §1

[13] = test system: glucose-6-phosphatase (G6Pase); assay: Effect of L-Asp on G6Pase expression suppressive action of insulin in Fao cells (quantitative PCR); format: cell-based, rat; conditions: for G6Pase expression level: 6 h, -Asp RPMI without insulin = 1.00; for G6Pase expression level (value in parentheses): -Asp RPMI at same insulin concentration = 1.00
Experimental: To verify whether an amino acid showing a TRB3 expression suppressive action actually increases the insulin action on hepatocytes, how L-Asp acts on glucose-6-phosphatase (G6Pase) expression suppressive action of insulin in rat hepatic cancer-derived Fao cells was studied.
Fao cells were inoculated on a 24-well plate and cultured overnight. Thereafter, 0, 0.3, and 1.0 mM L-Asp and 0, 10^−10, 10^−8, and 10^−6 M insulin were added respectively to a basal medium corresponding to RPMI 1640 medium containing no glucose but 0.1% BSA, except with L-Asp being removed therefrom, and the cells were further cultivated for six hours. RNAs were extracted from the cultured cells, and the expression levels of G6Pase were determined through quantitative PCR.
The G6Pase expression level in −Asp RPMI medium added with no insulin is defined as 1.00.
The values in the parentheses are values while defining the G6Pase expression levels in −Asp RPMI medium at respective insulin concentrations as 1.00, respectively.

[14] = test system: GK rats fed with high-fat diets; assay: GK rats fed with high-fat diets: body weight, fasting glucose, insulin, triglyceride, liver triglyceride
[15] = HFD + Asp, HFD = 1.00 in table, n = 6, mean
[16] = HFD + Asp, 6-week administration, HFD = 1.00 in table, n = 6, mean
[17] = L-Asp administration, 6 weeks, HFD
[18] = before administration (baseline), HFD with about 6% L-Asp or 0.01% pioglitazone
[19] = week 3, HFD with about 6% L-Asp or 0.01% pioglitazone
[20] = week 6, HFD with about 6% L-Asp or 0.01% pioglitazone

## N[C@@H](CC(=O)O)C(=O)O [L-Asp, L-aspartic acid]
[1]
  G6Pase mRNA level in liver: 0.99 ± 0.15
[2]
  Fasting blood glucose level: 151 ± 4.8 mg/dL
[3]; [15]
  G6Pase mRNA level in liver: 0.52
[3]; HFD plus Asp group
  G6Pase expression relative to HFD group: 0.52 time
[4]; [15]
  TRB3 mRNA level in liver: 0.58
[4]; HFD plus Asp group
  TRB3 expression relative to HFD group: 0.58 time
[5]
  Body weight: 221 ± 11 g
[6]; [16]
  ACO mRNA level in liver: 1.18
[6]; [17]
  ACO gene expression: 1.18 time
[7]
  expression level of HNF-4α mRNA: 1.3 time
[7]; minus amino acid medium = 1.00
  HNF4α mRNA level: 1.30
[8]; minus amino acid medium = 1.00
  TRB3 mRNA level: 0.54
[8]; of minus amino acid medium
  expression level of TRB3 mRNA: 54%
[9]; [16]
  PPARα mRNA level in liver: 1.34
[9]; [17]
  PPAR-alpha gene expression: 1.34 time
[10]
  suppression of TRB3 expression: significantly suppresses the TRB3 expression
[11]
  TRB3 expression level: 0.724 ± 0.13
[11]; listed as aspartic acid
  TRB3 expression level: significantly suppressed TRB3 expression
[12]; [16]
  CPT-1 mRNA level in liver: 1.20
[12]; [17]
  CPT-1 gene expression: 1.20 time
[13]; 0.3 mM Asp, insulin 0 M
  G6Pase expression level: 0.603
  G6Pase expression level (value in parentheses): 0.60
[13]; 0.3 mM Asp, insulin 10^-6 M
  G6Pase expression level: 0.014
  G6Pase expression level (value in parentheses): 0.60
[13]; 0.3 mM Asp, insulin 10^-8 M
  G6Pase expression level: 0.022
  G6Pase expression level (value in parentheses): 0.70
[13]; 0.3 mM Asp, insulin 10^-10 M
  G6Pase expression level: 0.100
  G6Pase expression level (value in parentheses): 0.67
[13]; 1 mM Asp, insulin 0 M
  G6Pase expression level: 0.397
  G6Pase expression level (value in parentheses): 0.40
[13]; 1 mM Asp, insulin 10^-6 M
  G6Pase expression level: 0.008
  G6Pase expression level (value in parentheses): 0.36
[13]; 1 mM Asp, insulin 10^-8 M
  G6Pase expression level: 0.016
  G6Pase expression level (value in parentheses): 0.52
[13]; 1 mM Asp, insulin 10^-10 M
  G6Pase expression level: 0.076
  G6Pase expression level (value in parentheses): 0.51
[13]; L-Asp alone, glucose starvation
  G6Pase expression suppressive action: G6Pase expression suppressive action even if used alone
[13]; L-Asp in combination with insulin
  G6Pase expression suppression: increased G6Pase expression suppression when used in combination with insulin
[14]; HFD plus Asp group
  lipid droplet accumulation around the hepatic portal vein region (histological study): improved (reduced) lipid droplet accumulation
[14]; HFD plus Asp group compared with HFD group
  increase in fasting blood glucose level and fasting plasma insulin level (insulin resistance): less increase in these parameters; also recorded: substantially equivalent to that of the pioglitazone group
[14]; HFD plus Asp group compared with SD group
  fasting plasma triglyceride: decreased fasting plasma triglyceride
[14]; [18]
  Fasting blood glucose level: 100 ± 8 mg/dL
  Fasting insulin level: 0.5 ± 0.3 ng/mL
  Fasting triglyceride level: 92 ± 20 mg/dL
[14]; [19]
  Fasting blood glucose level: 124 ± 7 mg/dL
  Fasting insulin level: 1.6 ± 0.4 ng/mL
  Fasting triglyceride level: 77 ± 14 mg/dL
[14]; [20]
  Fasting blood glucose level: 110 ± 10 mg/dL
  Fasting insulin level: 1.5 ± 0.2 ng/mL
  Fasting triglyceride level: 70 ± 16 mg/dL
  Triglyceride content in liver: 28 ± 5 mg/g
